The source of these data is patent US20240059703A1 (AMGEN INC., priority 2021, published 2024).

A word on the IC50: it is the point on the concentration scale where inhibition reaches its midpoint. Low values mean inhibition by little substance, high ones a need for much substance.

In one assay the target is KRAS G12C (Homo sapiens (Human), UniProt P01116, C118A/G12C). Put plainly: 2 h coupled exchange assay. In kind it is biochemical. To be noted: Avg 2 h Coupled exchange IC50, 2 h compound pre-incubation. How it is done:
The term “2 h coupled exchange assay” or “20 h coupled exchange assay” as used herein refers to the assay described in the Section entitled “BIOLOGICAL EVALUATION.”

Assay [1] has as its system MIA PaCa-2 (human pancreatic carcinoma) cells. Kind of assay: Cell Viability Assay (CellTiter-Glo), MIA PaCa-2. In kind it is cell-based. How it is done: Serially-diluted compound or DMSO was added to the cells, and plates were incubated at 37° C., 5% CO2 for 72 h. Cell viability was measured using a CellTiter-Glo® Luminescent Cell Viability Assay kit (Promega) according to the manufacturer's protocol. The luminescence signal of treated samples was normalized to DMSO control, and data were analyzed using a 4-parameter logistic model to calculate IC50 values.

The test system of assay [2] is A549 (human lung carcinoma) cells. Kind of assay: Cell Viability Assay (CellTiter-Glo), A549. In kind it is cell-based. In outline: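 After a 72 h exposure to serial compound dilutions at 37° C, luminescent ATP content was measured with CellTiter-Glo. The cells were A549 or MIA PaCa-2, seeded at 1.67E+04 cells/mL in RPMI 1640 with 10% serum. Signals were normalized to DMSO controls and IC50 fitted with a 4-parameter logistic model.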
On the technique in general: In ATP-based viability assays light output follows the ATP content of the culture.

Where [3] appears, read: SOS-mediated nucleotide exchange.

KRAS G12C, sequence (P01116 other isoform, or with tags, fused parts or gaps G12C/C118A): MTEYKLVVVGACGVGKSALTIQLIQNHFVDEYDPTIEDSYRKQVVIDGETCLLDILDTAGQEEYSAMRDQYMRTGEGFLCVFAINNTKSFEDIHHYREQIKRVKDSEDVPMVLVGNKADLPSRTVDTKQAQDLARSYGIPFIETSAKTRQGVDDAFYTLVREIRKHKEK

`C=CC(=O)N1CC2(CCN(c3nc4c(c(-c5c(C)ccc6[nH]ncc56)c3C#N)C[C@H]3C[C@@H]4C3(C)C)C2)C1` (single isomer, unassigned) [Example 13-115]: the IC50 against KRAS G12C (setting [3]) is 12 nM; in assay [1] (Homo sapiens, MIA PaCa-2, 72 h), 9 nM; in assay [2] (Homo sapiens, A549, 72 h), more than 5 µM.
The matching figures for `C=CC(=O)N1CC2(CCN(c3nc4c(c(-c5c(C)ccc6cnn(C)c56)c3C#N)C[C@H]3C[C@@H]4C3)C2)C1` (single isomer, unassigned) [Example 13-118]: 72 nM, 279 nM and more than 5 µM.
For `C=CC(=O)N1CC2(CCN(c3nc4c(c(-c5c(C)ccc6cnn(C)c56)c3C#N)CO[C@@H](C3CC3)C4)C2)C1` (single isomer, unassigned) [Example 13-122], in that order: 299 nM, 1080 nM and more than 5 µM.
`C=CC(=O)N1CC2(CCN(c3nc4c(c(-c5cc(O)ccc5C)c3C#N)C[C@H]3C[C@@H]4C3)C2)C1` (single isomer, unassigned) [Example 13-126]: the half-inhibitory concentration (IC50) against KRAS G12C (setting [3]) was 29 nM; in assay [1] (Homo sapiens, MIA PaCa-2, 72 h) it was more than 5000 nM; in assay [2] (Homo sapiens, A549, 72 h), more than 5 µM.
The matching figures for `C=CC(=O)N1CC2(CCN(c3nc4c(c(-c5cc(O)ccc5C)c3C#N)COC(C)(C)C4)C2)C1` (single isomer, unassigned) [Example 13-128, 4-(5-hydroxy-2-methylphenyl)-7,7-dimethyl-2-(2-(2-propenoyl)-2,6-diazaspiro[3.4]octan-6-yl)-7,8-dihydro-5H-pyrano[4,3-b]pyridine-3-carbonitrile]: 91 nM, more than 5000 nM and more than 5 µM.
The matching figures for `C=CC(=O)N1CC2(CCN(c3nc4c(c(-c5cc(O)cc6ccccc56)c3C#N)C[C@H]3C[C@@H]4C3(C)C)C2)C1` (single isomer, unassigned) [Example 13-129]: 13 nM, 21 nM and more than 5 µM.
For `C=CC(=O)N1CC2(CCN(c3nc4c(c(-c5c(C)ccc6cnn(C)c56)c3C#N)[C@H]3C[C@@H](C4)C3)C2)C1` (single isomer, unassigned) [Example 13-133], in that order: 64 nM, 200 nM and more than 5 µM.
As to `C=CC(=O)N1CC2(CCN(c3nc4c(c(-c5c(C)ccc6cnn(C)c56)c3C#N)CC[C@@H]3C[C@H]43)C2)C1` (single isomer, unassigned) [Example 13-136, (6a,7a)-4-(1,6-dimethyl-1H-indazol-7-yl)-2-(2-(2-propenoyl)-2,6-diazaspiro[3.4]octan-6-yl)-6,6a,7,7a-tetrahydro-5H-cyclopropa[h]quinoline-3-carbonitrile], the half-maximal inhibitory concentration (IC50) against KRAS G12C (setting [3]) was 78 nM; in assay [1] (Homo sapiens, MIA PaCa-2, 72 h) it was 401 nM; in assay [2] (Homo sapiens, A549, 72 h) it was more than 5 µM.
For `C=CC(=O)N1CC2(CCN(c3nc4c(c(-c5c(C)ccc6cnn(C)c56)c3C#N)CC[C@H]3C[C@@H]43)C2)C1` (single isomer, unassigned) [Example 13-137, (6a,7a)-4-(1,6-dimethyl-1H-indazol-7-yl)-2-(2-(2-propenoyl)-2,6-diazaspiro[3.4]octan-6-yl)-6,6a,7,7a-tetrahydro-5H-cyclopropa[h]quinoline-3-carbonitrile], in that order: 72 nM, 468 nM and more than 5 µM.
For `C=CC(=O)N1CC2(CCN(c3nc4c(c(-c5c(C)ccc6cnn(C)c56)c3C#N)CCC(C)(C)C4)C2)C1` (single isomer, unassigned) [Example 13-145, 4-(1,6-dimethyl-1H-indazol-7-yl)-7,7-dimethyl-2-(2-(2-propenoyl)-2,6-diazaspiro[3.4]octan-6-yl)-5,6,7,8-tetrahydro-3-quinolinecarbonitrile], the IC50 is 31 nM at KRAS G12C (setting [3]); 208 nM in assay [1] (72 h); more than 5 µM in assay [2] (Homo sapiens, A549, 72 h).
Consider `C=CC(=O)N1CC2(CCN(c3nc4c(c(-c5c(C)ccc6cnn(C)c56)c3C#N)CCC(C)(C)C4)C2)C1` (single isomer, unassigned) [Example 13-150, 4-(1,6-dimethyl-1H-indazol-7-yl)-7,7-dimethyl-2-(2-(2-propenoyl)-2,6-diazaspiro[3.4]octan-6-yl)-5,6,7,8-tetrahydro-3-quinolinecarbonitrile], for which the IC50 was determined as 2900 nM at KRAS G12C (setting [3]), 4020 nM in assay [1] (72 h) and 6.73 µM in assay [2] (72 h).
For the compound `C=CC(=O)N1CC2(CCN(c3nc4c(c(-c5c(N)c(Cl)cc(Cl)c5F)c3C#N)COC(C)(C)C4)C2)C1` (single isomer, unassigned) [Example 13-155, 4-(2-amino-3,5-dichloro-6-fluorophenyl)-7,7-dimethyl-2-(2-(2-propenoyl)-2,6-diazaspiro[3.4]octan-6-yl)-7,8-dihydro-5H-pyrano[4,3-b]pyridine-3-carbonitrile], the IC50 against KRAS G12C (setting [3]) is 111 nM; in assay [1] (72 h), 93 nM; in assay [2] (Homo sapiens, A549, 72 h), more than 5 µM.
As to `C=CC(=O)N1CC2(CCN(c3nc4c(c(-c5c(N)c(Cl)cc(Cl)c5F)c3C#N)COC(C)(C)C4)C2)C1` (single isomer, unassigned) [Example 13-156, 4-(2-amino-3,5-dichloro-6-fluorophenyl)-7,7-dimethyl-2-(2-(2-propenoyl)-2,6-diazaspiro[3.4]octan-6-yl)-7,8-dihydro-5H-pyrano[4,3-b]pyridine-3-carbonitrile], the half-inhibitory concentration (IC50) is 140000 nM against KRAS G12C (setting [3]), 5920 nM in assay [1] (72 h) and 8.16 µM in assay [2] (72 h).
On to `C=CC(=O)N1CC2(CCN(c3nc4c(c(-c5c(C)ccc6[nH]ncc56)c3C#N)[C@@H]3CC[C@H]4C3)C2)C1` (single isomer, unassigned) [Example 14-4], for which the IC50 on KRAS G12C (setting [3]) is 17 nM; in assay [1] (Homo sapiens, MIA PaCa-2, 72 h) it was 9 nM; in assay [2] (Homo sapiens, A549, 72 h) it was more than 5 µM.
Regarding `C=CC(=O)N1CC2(CCN(c3nc4c(c(-c5c(C)ccc6[nH]ncc56)c3C#N)[C@@H]3CC[C@H]4C3)C2)C1` (single isomer, unassigned) [Example 14-7], the IC50 turned out to be 14 nM at KRAS G12C (setting [3]); 6 nM in assay [1] (Homo sapiens, MIA PaCa-2, 72 h); 5.57 µM in assay [2] (Homo sapiens, A549, 72 h).
The matching figures for `C=CC(=O)N1CC2(CCN(c3nc4c(c(-c5cc(O)ccc5C)c3C#N)[C@@H]3CC[C@H]4C3)C2)C1` (single isomer, unassigned) [Example 14-11]: 38 nM, 149 nM and more than 5 µM.
Consider `C=CC(=O)N1CC2(CCN(c3nc4c(c(-c5c(C)ccc6cnn(C)c56)c3C#N)[C@@H]3CC[C@H]4C3)C2)C1` (single isomer, unassigned) [Example 14-15], for which the IC50 was 49 nM on KRAS G12C (setting [3]); 68 nM in assay [1] (Homo sapiens, MIA PaCa-2, 72 h); more than 5 µM in assay [2] (Homo sapiens, A549, 72 h).
The matching figures for `C=CC(=O)N1CC2(CCN(c3nc4c(c(-c5c(C)ccc6cnn(C)c56)c3C#N)[C@@H]3CC[C@H]4C3)C2)C1` (single isomer, unassigned) [Example 14-17]: 22 nM, 51 nM and more than 5 µM.
Regarding `C=CC(=O)N1CC2(CCN(c3nc4c(c(-c5cccc6cn[nH]c56)c3C#N)C[C@H]3C[C@@H]4C3(C)C)C2)C1` (single isomer, unassigned) [Example 14-29], the IC50 at KRAS G12C is 58 nM; in assay [1] (Homo sapiens, MIA PaCa-2, 72 h) it was 143 nM; in assay [2] (Homo sapiens, A549, 72 h) it was more than 5 µM.
